# Assay results from patent US20070135378A1, “Method for the direct synthesis of oligorhamnosides, composition comprising oligorhamnosides and use thereof as a medicament” (priority 2003, published 2007).
# How the values were obtained:
# keratinocytes = test: Toxicity test: viability of keratinocytes; format: cell-based; conditions: for % viability: vs control 100%
# Description: 1) Principles of Cellular Viability Measurement Techniques • MTT [3-(4,5-[…])-2,5-diphenyl tetrazolium bromide] reduction technique (sold by Sigma).
# This technique corresponds to a […] test allowing quantification of living, metabolically active cells in a non-radioactive manner. MTT is a cationic molecule which is bound to the membranes of mitochondria in a potential-dependant fashion. On the level of the mitochondria, MTT will be reduced to formazan blue by mitochondrial dehydrogenase. The living cells are thus colored blue, in contrast with the dead cells which remain transparent. The measure of viability is then carried out by measurement of the optical density using an automatic reader.
# This method of analysis, however, seems to be better adapted for adherent cells (keratinocyte-type) than for non-adherent cells (monocytes and dendritic cells). Another study was thus envisaged to conclude on the cytotoxicity of the oligorhamnosides with respect to the differentiated cells analyzed, namely flow cytometry in the presence of propidium iodide. • XTT tetrazolium salt reduction technique.
# This is a technique allowing quantification of cellular proliferation and of the number of living (metabolically active) cells, without the incorporation of radioactive isotopes. XTT, yellow in color, is a cationic molecule which is bound to the membranes of mitochondria in a potential-dependant fashion, as does MTT.
# On the level of the mitochondria, XTT will be reduced to formazan (orange) by mitochondrial tetrazolium reductase. […] Indeed, the reduction product is soluble within the cell. The method is thus faster. Living cells, in the absence and presence of a treatment become colored, in contrast with dead cells which remain colorless. The level of formazan product is detected with the spectrophotometer at a wavelength of 450 nm and is directly proportional to the number of metabolically active cells.
# 2) Toxicity Tests • Keratinocytes were isolated and placed in culture from human skin biopsies. Measurements of optical density (absorbance) of the 4 wells treated with the same product concentration were averaged. This average was compared with the average of the measurements obtained for the 4 control wells (Student's t-test—comparison of means—significant difference at 95% if p<0.05 and 99% if p<0.01).
# The viabilities of the treated cells are expressed as a percentage compared to the control (untreated cells) of 100% (OD treated/OD control×100).
# endothelial cells = test: Cytotoxicity test (MTT) on endothelial cell lines; format: cell-based
# Procedure: • Endothelial cells were placed in culture, immortalized and stabilized in their phenotype. The cell lines studied were appendix endothelial cells, brain microvascular endothelial cells, mesenteric lymphatic ganglia endothelial cells, peripheral lymphatic ganglia endothelial cells and skin microvascular endothelial cells.
# The cytotoxicity test was carried out by means of a biochemical test on the transformation of a tetrazolium salt, MTT. […] Viability is indeed always greater than 85%, and this is true for all of the cells lines studied.
# [1] = test system: LTB4 released by human neutrophilic leukocytes; test: Assay of LTB4 released by human neutrophilic leukocytes; format: cell-based; conditions: stimulation buffer, 0.1 μM
# Procedure: (§1) Neutrophils are isolated from normal human blood and purified by an original method. They are then activated by a stimulation buffer which causes the release of two types of lipid molecules, arachidonic acid derivatives, arising from the cyclooxygenase and lipoxygenase pathways, namely the leukotriene LTB4 and the prostaglandin PGE2. This stimulation buffer contains in particular Ca^2+ and Mg^2+ ions. These assays are carried out by means of an ELISA-type commercial assay kit.
# The results represent the means of the values assayed in two supernatants of cells stimulated during the same experiment.
# dendritic cells [2] = format: cell-based
# Procedure: Viability is determined from the mortality translated directly by the proportion of PI signal.
# dendritic cells [3] = test: Dendritic cell maturation (CD86 B7.2 expression, allergenic effect); format: cell-based, human; conditions: control substances, concentration not given
# Procedure: Three groups of cells are analyzed: 1) those which have not been exposed to oligorhamnosides or the selected activation signals, which will be used as negative controls, 2) those which were incubated for 24 hours with the activation signals, which will be used as positive controls, and 3) those which had been in contact with the oligorhamnosides for 24 hours. The culture medium used is a classical medium of type RPMI 1640 (Bioproducts), supplemented with 10% FCS, glutamine (2 mM) and the antibiotics penicillin and streptomycin (Bioproducts). The rinse liquid used is a PI buffer (Bioproducts). The cellular activator used is INFγ (SIGMA). The allergenic effect is reflected by the maturation of the dendritic cells and the expression of the CD86 B7.2 receptor. The more this receptor is expressed, the higher the proportion of mature cells and the more the rhamnosylated derivative studied has an allergenic effect.
# [4] = test system: 6-ketoPGF1α released by NHK; test: Assay of prostaglandin 6-ketoPGF1α after stimulation of keratinocytes (ELISA); format: cell-based, human; conditions: for inhibition at 1 µM: Homo sapiens, Keratinocyte, 2 h
# Procedure: Prostaglandin I2 (PGI2) is an unstable metabolite of the arachidonic acid degradation pathway. Like prostaglandin E2, it is a mediator of inflammation with vasodilatory properties. The instability of PGI2 lies in its rapid conversion (non-enzymatic hydration) to 6-keto prostaglandin F1α (6-ketoPG1α). It is thus this prostaglandin which is measured as a marker for PGI2 synthesis. PMA (phorbol-12-myristate-13-acetate) is an activator of protein kinase C. It is a non-physiological activator which mimics the effect of cytokines, including IL-1β on NHK, and encourages the cell to release a lipid molecule, the prostaglandin 6-ketoPGF1α. This prostaglandin is assayed by means of an ELISA. The two activators IL-1β and PMA are used. Indomethacin, an aspirin-type analgesic, is an anti-inflammatory drug (NSAID) which […]. It is used to inhibit the release of 6-ketoPGF1α. Two experiments were carried out. The first consists of pretreating the NHK with oligorhamnosides for 4 hours and then monitoring the stimulation for 2 hours in the presence of oligorhamnosides. A second experiment was carried out in which the pretreatment with oligorhamnosides was extended to 12 hours.
# [5] = test system: PGE2 released by human neutrophilic leukocytes; test: Assay of PGE2 released by human neutrophilic leukocytes; format: cell-based
# Procedure: as §1, with “kit. The results represent the means of the values assayed in two supernatants of cells stimulated during the same experiment.” for “kit.”
# [6] = IL-1β stimulation 2 hours 1 ng/ml, 1 μM
# [7] = PMA stimulation 2 hours 10 ng/ml, 1 μM
smiles,measurement,setting,value
"C[C@H](O)[C@H](O)[C@@H](O)[C@@H](O)C=O [Rhamnose, rhamnose]",% viability,keratinocytes; 0.001 mg/ml,95%
same,% viability,keratinocytes; 0.01 mg/ml,100%
same,% viability,keratinocytes; 0.1 mg/ml,98%
same,% viability,keratinocytes; 1 mg/ml,104%
same,cytotoxicity (in words),keratinocytes; even for the highest concentrations,does not exhibit cytotoxicity
CCCCCOC1O[C@@H](C)[C@H](O)[C@@H](O)[C@H]1O (stereo partly shown) [pentyl-rhamnoside],Viability,endothelial cells; all of the cell lines studied,greater than 85%
same,toxicity (in words),endothelial cells; endothelial cell lines,no toxicity
"CC(Cc1ccc(O)c(O)c1)C(C)Cc1ccc(O)c(O)c1 (stereo not shown) [NDGA, nordihydroguaiaretic acid]",% inhibition (LTB4 released),[1],73%
same,"LTB4 released, Stimulation",[1],684 ± 185 pg/mL
C[S+](C)[O-] [DMSO control],"Viability (propidium iodide, PI)",dendritic cells [2],1.27%
same,CD86 B7.2 (Maturation),dendritic cells [3],0.17%
COc1ccc2c(c1)c(CC(=O)O)c(C)n2C(=O)c1ccc(Cl)cc1 [indomethacin],inhibition at 1 µM,[4]; [6],17%
same,inhibition at 1 µM,[4]; [7],37%
same,Mean 6-ketoPGF1α,[4]; [6],22.6 ± 3.4 pg/ml/μg proteins
same,Mean 6-ketoPGF1α,[4]; [7],20.9 ± 4.9 pg/ml/μg proteins
same,Mean 6-ketoPGF1α,"[4]; Table 7 experiment, IL-1β stimulation 2 hours 1 ng/ml, concentration not given",22.6 ± 3.4 pg/ml/μg proteins
same,"PGE2 released, Without stimulation",[5]; 1 μM,4.5 ± 0 pg/mL
same,inhibition at 1 µM,"[5]; Homo sapiens, Leukocyte, stimulation buffer",69%
same,"PGE2 released, Stimulation","[5]; stimulation buffer, 1 μM",6.8 ± 1 pg/mL
